In patent US9193731B2, “Antimicrobial compounds and methods of making and using the same” (Melinta Therapeutics, Inc., priority 2009, dated 2015):

Test system: Escherichia coli strain ATCC25922
Assay: standard microdilution assay to determine minimum inhibitory concentrations (MICs)
Assay type: cell-based
Conditions: Escherichia coli strain ATCC25922, microdilution
Summary of the method: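 Broth microdilution MIC against E. coli ATCC25922, following CLSI protocols, typically in a 100 microliter final volume. Results reported as +/− relative to a 16 micrograms/ml cutoff.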

CC(CCN)c1cc(-c2cc3cn(-c4ccc(CNCCCNC(=N)N)cc4)c(=O)nc3[nH]2)ccc1Cl (stereo not shown) [Compound 2093a]
E. coli ATCC25922 MIC: + (a “+” indicates that the compound has an MIC value of 16 micrograms/ml or less)
